Data from ChEMBL document CHEMBL5050858, “Polyheterocyclic compounds as mettl3 inhibitors” (2021).

Biological target: METTL3/METTL14 (Homo sapiens, UniProt Q86U44)
Assay: Inhibition of full-length His-tagged METTL3 (unknown origin) coexpressed with full-length FLAG-tagged METTL14 (unknown origin) expressed in baculovirus expression system using 5'P-uacacucgaucuggacuaaagcugcuc-3' RNA as substrate pre-incubated for 10 mins and followed by substrate addition and measured after 60 mins by methyltransferase assay

Chain of METTL3/METTL14 (Q86U44 whole entry): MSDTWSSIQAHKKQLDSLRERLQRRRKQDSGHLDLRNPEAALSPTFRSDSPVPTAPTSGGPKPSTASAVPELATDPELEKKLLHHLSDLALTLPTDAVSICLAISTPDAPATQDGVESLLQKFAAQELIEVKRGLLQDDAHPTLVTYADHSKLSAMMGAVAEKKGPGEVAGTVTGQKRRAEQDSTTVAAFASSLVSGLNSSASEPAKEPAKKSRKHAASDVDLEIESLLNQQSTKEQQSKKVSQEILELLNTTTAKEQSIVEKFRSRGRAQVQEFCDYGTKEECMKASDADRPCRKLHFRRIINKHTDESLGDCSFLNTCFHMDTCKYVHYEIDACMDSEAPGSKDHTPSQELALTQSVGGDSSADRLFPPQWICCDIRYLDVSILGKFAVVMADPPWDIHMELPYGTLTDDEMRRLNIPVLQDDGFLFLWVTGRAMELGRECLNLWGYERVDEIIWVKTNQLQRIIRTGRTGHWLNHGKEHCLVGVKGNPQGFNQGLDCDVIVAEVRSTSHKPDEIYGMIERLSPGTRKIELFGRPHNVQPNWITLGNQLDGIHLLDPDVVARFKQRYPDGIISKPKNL
Chain of METTL3/METTL14 (Q9HCE5 whole entry, further chain): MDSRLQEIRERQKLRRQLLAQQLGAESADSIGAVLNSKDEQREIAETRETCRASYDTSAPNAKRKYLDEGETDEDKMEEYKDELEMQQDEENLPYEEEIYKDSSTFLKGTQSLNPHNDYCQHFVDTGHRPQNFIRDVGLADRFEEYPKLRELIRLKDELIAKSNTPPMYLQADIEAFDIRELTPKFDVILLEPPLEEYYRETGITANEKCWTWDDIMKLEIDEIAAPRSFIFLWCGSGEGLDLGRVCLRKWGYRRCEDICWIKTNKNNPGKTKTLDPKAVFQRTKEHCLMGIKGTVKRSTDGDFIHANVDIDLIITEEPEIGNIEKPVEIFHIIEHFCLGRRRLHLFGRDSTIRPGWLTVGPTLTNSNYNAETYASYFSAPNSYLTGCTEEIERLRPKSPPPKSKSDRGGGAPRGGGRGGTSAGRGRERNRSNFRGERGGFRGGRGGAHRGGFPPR

| SMILES | IC50 [µM] |
| --- | --- |
| O=C(NCc1ccc2cc(CCN3CC4(CCC4)C3)[nH]c2c1)c1cc(=O)n2ccccc2n1 | 0.118 |
| O=C(NCc1ccc2cc(CN3CC(C4CC4)C3)[nH]c2c1)c1cc(=O)n2ccccc2n1 | 0.00924 |
